What all share (assay type): cell-based, human
The subject of assay [1] is pre-OPCs. Nature of the assay: HD-DoE 12-factor model for stage 2 (version 1), 3 days on stage 1 pre-OPCs. The settings on record: optimized for maximum expression of OLIG2 at 1841.6; negative impact. An excerpt: To engineer the recipe of stage 2 of differentiation, cells were first cultured in the stage 1 media described in Example 1 and then treated with combinations of 8 or 12 factors for 3 days and the gene expression of cells in each condition was modeled. At this point, due to short duration of culture (only six days in vitro), we decided to focus on maximal expression of OLIG2 and maintenance of high expression of NKX2-2, while initiating expression of SOX10, OLIG1 and PDGFRa, to guide the cells towards oligodendrocyte fate (Emery and Lu (2015). Cold Spring Harb Perspect Biol. 7:a020461; Perlman et al. (2020). Glia 68:1291-1303; Goldman and. Kuypers (2015) Development 142:3983-95).
In one 12-factor model, the individual and combinatorial impact of SUN 11602 an agonist for FGF signaling pathway, FGF2, Activin A an activator of one of the receptors of TGF-b superfamily, A 8301, an inhibitor of TGF-b pathway, CHIR99021 a WNT activator, AGN193109 a RA antagonist, MK2206 an AKT inhibitor, Purmorphamine an agonist of SHH signaling pathway, AZD3147 an antagonist of mTOR pathway, MHY1485 an agonist of mTOR pathway, SC79 an agonist of AKT pathway and G06983 an inhibitor of PKC pathway, were tested.
Dynamic profile analysis was used to assess the expression levels of other genes of interests, such as NKX2-2, OLIG1 and SOX10, while the model is maximized for OLIG2. Activin A and SUN 11602 were brought down to zero due to their very low factor contribution. We observed when the model is optimized, the expression level of NKX2-2 is at 3000, PDGFRa at 1000, OLIG1 at 80 and SOX10 at 15 (FIG. 12).

For assay [2], the system named is cells cultured in stage 1 and stage 2 differentiation media. Nature of the assay: Two further HD-DoE models optimized for SOX10 (IGF-1, FGF-2, AGN193109). An excerpt: According to literature, proteins such as FGF-2, IGF-1, PDGF-AA and NT-3 play an important role in oligodendrocyte differentiation (Goldman and Kuypers (2015) Development 142:3983-95). In the first model, FGF-2 had positive regulatory impact only on the expression level of SOX10 and IGF-1 on PDGFRa. Therefore, to further understand the impact of IGF-1 and FGF-2 on differentiation of cells and confirm their positive role, we included these factors in two other models and optimized the models for maximum expression of SOX10. This gene is one of the main transcription factors of oligodendrocytes, along with OLIG2 and NKX2-2 that has shown the potential to commit the stem cells to oligodendrocytes in reprogramming efforts (Wang et al, (2014) Proc Natl Arad Sri USA 111:E2885-94; García-León et al. (2018) Stem Cell Reports 10:655-672).

In assay [3] the test system is pre-OPCs. Kind of assay: HD-DoE 8-factor model for stage 2 (version 2) on pre-OPCs. Conditions: negative impact. The method, then: To engineer the recipe of stage 2 of differentiation, cells were first cultured in the stage 1 media described in Example 1, then, 48 or 96 different combinations of effectors generated using Design-of-Experiments compression through D-optimality were robotically prepared. The effector combinations were prepared in a basal media and were subsequently added to the cells, which were then allowed to differentiate. Three days later RNA extraction was performed, and gene expression was obtained using quantitative PCR analysis. The data was normalized and modeled using partial least squares regression analysis to the effector design, resulting in the generation of gene-specific models, which after model tuning for maximal predictive power, provided explanation of the effectors ability to control the expression of individual genes, combinatorically, and individually. Solutions within the tested space could then be explored to address desirability.
At this point, due to short duration of culture (only six days in vitro) we decided to focus on maximal expression of OLIG2 and maintenance of high expression of NKX2-2, while initiating expression of SOX10, OLIG1 and PDGFRa, to guide the cells towards oligodendrocyte fate (Emery and Lu (2015). Cold Spring Harb Perspect Biol. 7:a020461; Perlman et al. (2020). Glia 68:1291-1303; Goldman and Kuypers (2015) Development 142:3983-95). In one 8-factor model, the individual and combinatorial impact of CHIR99021 (a WNT pathway agonist), AGN193109 (an RA pathway antagonist), FGF-2 (an FGFR agonist), Purmorphamine (an SHH pathway agonist), AICAR (an AMPK agonist), GW3965 (an LXR pathway agonist), GW590735 (a PPAR-a agonist) and AZD3147 (a mTOR antagonist) on further differentiation of cells were tested.

The subject of assay [4] is pre-OPCs. Kind of assay: HD-DoE second 12-factor model for stage 2 (Purmorphamine with TTNPB, Biotin, Insulin etc.). Conditions: optimized for OLIG2; input for minimal expression (negative). The method, then:
To gain more information about the effect of Purmorphamine on differentiation of pre-OPCs to a more committed cell population, we tested this factor in two other models. In a 12-factor model, we included Purmorphamine, FGF2, AGN193109 and CHIR99021 along with 8 new inputs including TTNPB, Biotin, Insulin, propionate, DBZ, Yhhu3792, LDN193189 and Y-27632. […] In another 12-factor model, Purmorphamine was tested along with A 8301, CHIR99021, Dexamethasone, T3+T4, PD0325901, ZM336372, DBZ, BMP7, PD173074, SANT-1 and PDGF-AA.

Assay [5] has as its system OPCs. Kind of assay: HD-DoE 8-factor model for stage 4 on OPCs. Conditions: optimized for maximal expression of CNP at 1339. On the procedure:
(§1) To engineer the recipe of stage 4 of differentiation, 48 or 96 different combinations of effectors generated using Design-of-Experiments compression through D-optimality were robotically prepared. The effector combinations were prepared in a basal media and were subsequently added to the cells, which were treated with the stage 1, stage 2 and stage 3 differentiation media as described in the earlier examples to generate OPCs. […] Solutions within the tested space could then be explored to address desirability.

In assay [6] the test system is OPCs. Kind of assay: HD-DoE 12-factor model for stage 4 on OPCs, 6 days in culture. The method, then:
as §1, with “desirability. […] Benarroch (2009) Neurology 72:1779-1785; Shi et al. (2019) Exp Ther Med, 18:1258-1266).” for “desirability.”

The subject of assay [7] is cells cultured in stage 1 and stage 2 differentiation media. Nature of the assay: HD-DoE 8-factor model for stage 3 (version 2). On the procedure: To further differentiate the cells to an oligodendrocyte progenitor identity, additional HD-DoE experiments were performed on the cells that were cultured in stage 1 and stage 2 differentiation media. After 3 days, gene expression of cells in different combinatorial conditions were investigated. At this time, we focused on maximal expression of signature oligodendrocyte progenitor genes such as SOX10, OLIG1 and PDGFRa (Goldman and Kuypers (2015) Development 142:3983-95: Marques et al. (2016) Science 352:1326-1329). In one 8-factor model, individual and combinatorial effects of TTNPB (an RA agonist), CHIR99021, FGF-2, IGF-1, AGN193109, Purmorphamine, MHY1485 (a mTOR pathway agonist) and SC79 (an AKT pathway agonist) were tested to guide the cells toward a SOX10/PDGFRa positive population. […] CHIR99021 was also positive, with a factor contribution of 8.1 (FIG. 33).
Other positive factors were IGF-1, with a factor contribution of 11.2, CHIR99021, with a factor contribution of 8.5 and TTNPB, with a factor contribution below 1 (FIG. 34).
To confirm the impact of TTNPB, FGF-2 and IGF-1 on a bigger scale, we investigated the expression profile of a larger group of genes defining late oligodendrocyte progenitor population, such as ID2, CSPG4, FYN, SOX8, PLP1 and BCAN (Perlman et al. (2020). Glia 68:1291-1303; Goldman and Kuypers (2015) Development 142:3983-95; van Tilborg et al. (2018) Glia 66:221-238) and neuronal genes such as NEUROD1, NEUROG1 and NEUROG2 in presence of IGF-1, FGF-2 or TTNPB.

Setting [8] is: optimized for CNP at 1790, negative impact.
Setting [9] is: optimized for CNP at 1790, positive.

“And” between values parts separate entries of the source, which are not always exact repeats. Equal values may be shown once.

Turning to `Cc1ccc(C2=CCC(C)(C)c3ccc(C#Cc4ccc(C(=O)O)cc4)cc32)cc1` [AGN193109], the factor contribution in the assay with pre-OPCs [1] stood at 23.2; in assay [2] (increasing level of SOX10, positive effect), 16; with pre-OPCs [3] (optimized for maximum expression of OLIG1 at 454.7) it was 25.3; in the assay on pre-OPCs [3] (optimized for maximum expression of OLIG2 at 3325), 25.8; in the assay on pre-OPCs [4], 18.3.
On to `O=C(O)CCCC[C@@H]1SC[C@@H]2NC(=O)N[C@@H]21` [Biotin], for which the factor contribution is 12 in the assay with OPCs [5] (negative impact); 16 and 16.5 in the assay on OPCs [6] (setting [8]).
`N[C@@H](Cc1cc(I)c(Oc2ccc(O)c(I)c2)c(I)c1)C(=O)O` [T3]: the results for the factor contribution with OPCs [5] (positive) and in the assay with OPCs [6] (setting [8]) were 18 and 1.2, respectively. Further, the “effect on other OL genes and neuronal gene NeuroG1” value in the assay on OPCs [6] (factor effect plots) was “can upregulate other OL genes such as PLP1, PTGDS, KLK6 and MBP while downregulating neuronal gene NeuroG1”.
With “IGF-1: IGFR activator (insulin-like growth factor 1)”, the factor contribution result in the assay on OPCs [5] (positive) is on record as “below 1”; in assay [7] (optimized for maximum expression of PDGFRa at 853.4, positive), 11.2; in the assay on OPCs [6] (setting [9]), 5. Further, the “effect on late OPC genes and neuronal genes” value in assay [7] (factor plots vs concentration) is listed as “expression levels of OPC genes increased as the concentration of IGF-1 increased, while neuronal genes decreased”. The “impact on the expression level of SOX10” value in assay [2] (two other models optimized for SOX10) was “positive impact”.
Insulin: insulin receptor agonist: the factor contribution was 10 in the assay on OPCs [5] (positive); 3 with OPCs [6] (setting [9]); 13 and 13.2 in the assay on OPCs [6] (optimized for PLP1 at 3600, positive).

For the origin of these results see patent US12729368B2, “Methods and compositions for generating oligodendrocyte progenitor cells” (Trailhead Biosystems Inc., priority 2022, dated 2026).
